Several values for one entry are separate records, joined by “and”; a condition that tells them apart may be missing. Equal values may be shown once.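 Five compound concentrations were applied to cells in 96-well plates for 48 hours; endpoints were derived by simple linear interpolation of the resulting dose-response curve. GI50 is the concentration that inhibits growth by half. TGI marks complete inhibition of growth.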 Where only a bound is given, the exact number is not on record here.

Some test systems named below: HCC-2998 colon; HOP-62 NSCLC; MOLT-4 leukemia; NCI-H23 lung; NCI-H522 lung; RXF 393 renal; SF-268 CNS; SK-MEL-2 melanoma; SK-MEL-28 melanoma; SW-620 colon.
Common to all, as to experiment: NCI tumour cell line growth inhibition, 48 h

For `CCN1C(=O)N(CC)C2C1NN=c1s/c(=C\c3ccc([N+](=O)[O-])cc3)c(=O)n12` (centres undefined), the GI50 in the test with HCC-2998 colon was 1.61 µM; in the test with HOP-62 NSCLC, 0.731 µM; in the test on MOLT-4 leukemia, 0.577 µM; in the test on NCI-H23 lung, 1.11 µM; in the test with NCI-H522 lung it was 0.323 µM; in the test on RXF 393 renal it was 0.451 µM. The GI50 is 0.895 µM with SF-268 CNS, 1.16 µM in the test on SK-MEL-2 melanoma, 1.93 µM with SK-MEL-28 melanoma and 0.379 µM with SW-620 colon. The TGI is above 100 µM with HCC-2998 colon; above 59.8 µM in the test on HOP-62 NSCLC; above 100 µM in the test with MOLT-4 leukemia; above 100 µM with NCI-H23 lung; 6.94 µM in the test on NCI-H522 lung; above 67.7 µM in the test on SF-268 CNS. Besides, the TGI in the test on SK-MEL-2 melanoma, in the test with SK-MEL-28 melanoma and in the test with SW-620 colon was above 100 µM in each case.

Take `COC(=O)C1(C)CCc2c(ccc3ccccc23)C1=O` (centres undefined): the TGI is above 100 µM in the test on HCC-2998 colon; above 100 µM with HOP-62 NSCLC; above 100 µM with MOLT-4 leukemia; above 100 µM with NCI-H23 lung; 57.3 µM in the test with NCI-H522 lung; 67.5 µM in the test with RXF 393 renal. Besides, the TGI is above 100 µM with SF-268 CNS, 64.8 µM with SK-MEL-2 melanoma, above 100 µM in the test on SK-MEL-28 melanoma and above 100 µM in the test on SW-620 colon.

Consider `C=C1C(=O)C23C(O)C1CCC2C12CO[C@]3(O)[C@@H](O)C1C(C)(C)CCC2O` (some centres undefined), for which the TGI was 30.4 µM in the test with HCC-2998 colon; 40.5 µM with HOP-62 NSCLC; above 38.9 µM in the test with MOLT-4 leukemia; 43.4 µM in the test on NCI-H23 lung; 2.15 µM in the test on NCI-H522 lung; 20.6 µM in the test with RXF 393 renal. The TGI with SF-268 CNS was determined as 28.8 µM; in the test on SK-MEL-2 melanoma, 30.2 µM; with SK-MEL-28 melanoma it was 11.4 µM; with SW-620 colon, 23.8 µM.

As to `CC1OC(OC2C(OC3CCC4(C)C(CCC5(C)C4CC=C4C6CC(C)(C)CCC6(CO)C(O)CC45C)C3(C)C)OC(C(=O)O)C(OC3OC(COC4OC(CO)C(O)C(O)C4O)C(O)C(O)C3O)C2O)C(O)C(O)C1O` (centres undefined), the GI50 was 1.73 µM in the test with HCC-2998 colon; 14.8 µM in the test with HOP-62 NSCLC; 2.35 µM with MOLT-4 leukemia; 1.77 µM in the test on NCI-H23 lung; 1.43 µM in the test on NCI-H522 lung; 8.94 µM in the test on RXF 393 renal. The GI50 in the test with SF-268 CNS was 13.1 µM; with SK-MEL-2 melanoma it was 8.57 µM; with SK-MEL-28 melanoma, 1.96 µM; with SW-620 colon it was 12.5 µM. For the same compound, the TGI is 4.45 µM in the test with HCC-2998 colon; 30.9 µM in the test with HOP-62 NSCLC; 8.42 µM in the test with MOLT-4 leukemia; 4.67 µM in the test with NCI-H23 lung; 2.95 µM in the test on NCI-H522 lung; 19.8 µM in the test with RXF 393 renal. The TGI in the test on SF-268 CNS turned out to be 27.1 µM; in the test on SK-MEL-2 melanoma it was 20.1 µM; with SK-MEL-28 melanoma it was 9.02 µM; with SW-620 colon, 24.2 µM.

Turning to `CCOc1ccc(NC(=O)/C(=C/c2ccccc2)C(C)=O)cc1`, the TGI came out at 27.1 µM with HCC-2998 colon; 30.3 µM in the test with HOP-62 NSCLC; 19.5 µM in the test with MOLT-4 leukemia; 24.8 µM in the test with NCI-H23 lung; 7.66 µM with NCI-H522 lung; 19 µM in the test with RXF 393 renal. In addition, the TGI in the test with SF-268 CNS came out at 30.7 µM; in the test on SK-MEL-2 melanoma, 26.4 µM; in the test with SK-MEL-28 melanoma, 26 µM; in the test on SW-620 colon, 33.2 µM.

With `Cn1cccc1C1CC(=O)N(CCC[Se]C#N)C1=O` (centres undefined), the GI50 in the test on HCC-2998 colon was 2.96 µM; in the test on HOP-62 NSCLC it was 1.88 µM; in the test on MOLT-4 leukemia it was 2.16 µM; in the test on NCI-H23 lung, 2.6 µM; with NCI-H522 lung, 1.87 µM; in the test with RXF 393 renal, 1.74 µM. Moreover, the GI50 in the test on SF-268 CNS was 1.92 µM; with SK-MEL-2 melanoma it was 2.13 µM; in the test with SK-MEL-28 melanoma it was 2.24 µM; in the test with SW-620 colon, 3.26 µM. In addition, the TGI came out at 10.1 µM with HCC-2998 colon; 3.77 µM with HOP-62 NSCLC; 7.43 µM in the test with MOLT-4 leukemia; 7.88 µM in the test on NCI-H23 lung; 4.04 µM with NCI-H522 lung; 3.43 µM in the test with RXF 393 renal. For the same compound, the TGI worked out at 3.92 µM in the test with SF-268 CNS, 5.31 µM in the test on SK-MEL-2 melanoma, 5.96 µM in the test on SK-MEL-28 melanoma and 11.8 µM in the test with SW-620 colon.

Consider `O=[N+]([O-])c1ccc([I+]c2ccccc2)cc1`, for which the GI50 in the test on HCC-2998 colon was 3.22 µM; in the test on HOP-62 NSCLC it was 1.56 µM; with MOLT-4 leukemia, 3.17 µM; in the test with NCI-H23 lung, 1.23 µM; in the test on NCI-H522 lung, 1.52 µM; in the test with RXF 393 renal, 1.87 µM. Also, the GI50 was 1.65 µM with SF-268 CNS, 2.25 µM with SK-MEL-2 melanoma, 1.92 µM with SK-MEL-28 melanoma and 1.85 µM with SW-620 colon. In addition, the TGI is 16.4 µM and 11.3 µM in the test on HCC-2998 colon; 25.6 µM and 3.3 µM in the test with HOP-62 NSCLC; > 26.2 µM and 75.3 µM in the test with MOLT-4 leukemia; 5.98 µM and 2.74 µM in the test with NCI-H23 lung; 4.2 µM and 3.03 µM with NCI-H522 lung; 10.8 µM and 3.76 µM in the test on RXF 393 renal. In addition, the TGI is 13.1 µM and 3.11 µM in the test on SF-268 CNS; 7.47 µM with SK-MEL-2 melanoma; 10.1 µM and 4.57 µM in the test with SK-MEL-28 melanoma; 12.2 µM and 4.31 µM in the test on SW-620 colon.

Regarding `O=[N+]([O-])c1ccc(N=Nc2c(O)[nH]c3ccc(Br)cc23)c([N+](=O)[O-])c1`, the TGI with HCC-2998 colon was determined as 23.4 µM; in the test with HOP-62 NSCLC, 21 µM; in the test with MOLT-4 leukemia it was 26.2 µM; with NCI-H23 lung it was 8.28 µM; with NCI-H522 lung, 8.35 µM; in the test with RXF 393 renal, 15.3 µM. In addition, the TGI worked out at 16.6 µM in the test on SF-268 CNS, 8.04 µM in the test with SK-MEL-2 melanoma, 10.3 µM with SK-MEL-28 melanoma and 11.7 µM in the test with SW-620 colon.

In the case of `CC(=O)C(CN1CCOCC1)C(c1ccccc1)c1c(O)c2ccccc2oc1=O` (centres undefined), the TGI in the test on HCC-2998 colon, in the test with HOP-62 NSCLC, in the test on MOLT-4 leukemia, with NCI-H23 lung, in the test on NCI-H522 lung and with RXF 393 renal was above 100 µM each time. Besides, the TGI with SF-268 CNS, with SK-MEL-2 melanoma, in the test on SK-MEL-28 melanoma and in the test with SW-620 colon was above 100 µM throughout.

The record behind these values is PubChem BioAssay (NCI).
